Here are results for one compound from US8961958B2, “High concentration self-microemulsifying coenzyme Q10 preparations for nutritional use” (Bioavailability, Inc, priority 2004, dated 2015).

Data set [1] in a line: Solubility of CoQ10 in solvents. It is filed as physicochemical. Here is the method:
The speed at which the CoQ10 dissolves into the solvent is primarily a function of the temperature of the solvent and its viscosity, but the base composition that is prepared at a temperature above […] will have the same properties as a base prepared at a temperature of 37° C. If CoQ10 crystals are added to solvents hot enough to melt CoQ10 (48° C. to about 52° C.) the molten CoQ10 mixes and dissolves almost immediately. On the other hand, under room temperature conditions, several hours of stirring may be required to obtain even a 5% CoQ10 concentration in a highly viscous solvent such as a triglyceride oil. By contrast, a low viscosity solvent, such as sweet orange oil can dissolve a 30% CoQ10 concentration under room temperature almost immediately. The fact that CoQ10 melts at about 48° C. to about 52° C. and then is soluble at high concentrations in a wide range of only modestly hydrophobic media, such as ethanol, is distracting to the design of high concentration CoQ10 solutions at room temperature or body temperature. Many different high concentration solutions of CoQ10 which form readily at the high temperatures of molten CoQ10 are not stable, or are meta-stable, at body temperature.
Primary considerations in the choice of an acceptable water-immiscible solvent are somewhat similar to those in choosing an acceptable surfactant. In addition to the basic requirements of bio-compatibility, low toxicity and good taste and odor, the solvent must have a melting point at or about the temperature of a human and most other mammals (about 37° C.), and be able to dissolve a substantial amount of CoQ10 below body temperature. […] Once such a solvent is identified, the saturation capacity of the solvent with CoQ10 at body temperature is then determined, and a reduction in the concentration of CoQ10 is made to ensure that mixture of the CoQ10 and solvent, along with the more hydrophilic surfactant, will not cause CoQ10 precipitation. […]

For data set [2] the following is noted: cited from earlier work.

Consider `COC1=C(OC)C(=O)C(C/C=C(\C)CC/C=C(\C)CC/C=C(\C)CC/C=C(\C)CC/C=C(\C)CC/C=C(\C)CC/C=C(\C)CC/C=C(\C)CC/C=C(\C)CCC=C(C)C)=C(C)C1=O` [CoQ10, coenzyme Q10], for which, in data set [1] (sweet orange oil, body temperature), the “thermodynamically stable concentration of CoQ10 in sweet orange oil” value was “up to 55%”. Besides, in data set [1] (sweet orange oil, room temperature, almost immediately), the “CoQ10 concentration dissolved in sweet orange oil” value is 30%. The “CoQ10 dissolvable in triglyceride oils” value in data set [1] (triglyceride oils, body temperature) is no more than 5 % by weight. Moreover, the “solubility of CoQ10 in water” value in data set [2] is recorded as “nearly insoluble in water”.
